Here are results for 27 compounds from patent US5348969A, “Diphenyloxazolyl-oxazoles as platelet aggregation inhibitors” (Bristol-Myers Squibb Company, priority 1992, dated 1994).

One may read the IC50 as the concentration at which inhibition is half-maximal. As a reminder, the inhibition is the share of the control response that was lost under treatment.

Converted amounts (≈) assume the structure as drawn.

The first assay concerns platelet aggregation (human PRP vs ADP).
Experiment: not given
The conditions noted are these: U.S. Pat. No. 4,460,598 / Drugs of the Future 11, 26 (1986); cited from earlier work.
`O=C(O)CCCCCCCOc1nc(-c2ccccc2)c(-c2ccccc2)n1-c1ccccc1` [Octimibate]: the “inhibition of platelet aggregation, in words” value was “broad spectrum inhibitor of platelet aggregation”.

Staying with this assay, now noted: human PRP vs ADP; U.S. Pat. No. 4,460,598 / Drugs of the Future 11, 26 (1986); cited from earlier work.
Turning to `O=C(O)CCCCCCCOc1nc(-c2ccccc2)c(-c2ccccc2)n1-c1ccccc1` [Octimibate], the “IC50 (human PRP vs ADP)” value is 1 µg/mL (≈ 2.2 µM).

The next assay has as its system ADP-induced aggregation of human blood platelets in platelet-rich-plasma. The assay can be described thus: In vitro inhibition of ADP-induced human platelet aggregation (aggregometer method, PRP). The assay is classed as cell-based. The note with it: Homo sapiens, Platelet, read-out: IC50 (human PRP vs ADP), human PRP, incubated at about 37° C. for about 3 minutes prior to ADP. As to the method: The aggregometer method of Born, G. V. R., J. Physiol., (London), 162, 67-68, (1962) as modified by Mustard, J. F., et al., J. Lab. Clin. Med., 64, 548-599, (1964) was used to assess the in vitro activity of the various compounds as to the inhibition of adenosine diphosphate (ADP) and collagen-induced platelet aggregation. The human volunteer donor's arm is cleansed with 70% ethyl alcohol. A sterile 20 ml syringe and needle are used to withdraw 20 ml of blood. The blood is immediately added to a test tube containing 3.8% sodium citrate to prevent clotting (1 part citrate to 9 parts blood).
Platelet rich plasma (PRP) was separated by centrifugation for 10 minutes at 1000 rpm (140×g) from citrated (3.8%) human blood. All glassware used for preparation of PRP is silicon treated. ADP in final concentration of 0.5 mcg/mL or 0.05 mL of a collagen suspension prepared according to the method described by Evans, G., et al., J. Exp. Med., 128, 877-894, (1968) was used to induce aggregation. The various compounds tested were dissolved in dimethylsulfoxide (DMSO) so that 5 mcl added to the platelet rich plasma would yield the desired test concentration. Vehicle control trials were done and compared with aggregation induced in platelet rich plasma containing various concentrations of the test compounds. Dose response curves were obtained and Inhibitor Concentration (IC50) values calculated.
The target compounds were evaluated as inhibitors of ADP-induced aggregation of human blood platelet in platelet-rich-plasma (PRP) in vitro. The test compounds were incubated at about 37° C. in PRP for about 3 minutes prior to the addition of sufficient ADP to provide final ADP concentration of […].
`COC(=O)COc1cccc([C@@H]2OC=N[C@H]2c2nc(-c3ccccc3)c(-c3ccccc3)o2)c1` (relative stereo) [Compound 31, Methyl[3-[4-(4,5-diphenyl-2-oxazolyl)-4,5-dihydro-5-oxazolyl]phenoxy]acetate]: the IC50 amounted to 0.08 µg/mL (≈ 0.176 µM). Same read-out and setting: to `COC(=O)COc1cccc([C@@H]2OC(C)=N[C@H]2c2nc(-c3ccccc3)c(-c3ccccc3)o2)c1` (relative stereo) [Compound 39, Methyl[3-[4-(4,5-diphenyl-2-oxazolyl)-4,5-dihydro-2-methyl-5-oxazolyl]phenoxy]acetate] belongs 0.65 µg/mL (≈ 1.39 µM); to `COC(=O)COc1cccc([C@@H]2OC(c3ccccc3)=N[C@H]2c2nc(-c3ccccc3)c(-c3ccccc3)o2)c1` (relative stereo) [Compound 40, Methyl[3-[4-(4,5-diphenyl-2-oxazolyl)-4,5-dihydro-2-phenyl-5-oxazolyl]phenoxy]acetate], 10 µg/mL (≈ 18.8 µM). Still for that read-out and setting: to `COC(=O)COc1cccc([C@H]2OC(C)=N[C@H]2c2nc(-c3ccccc3)c(-c3ccccc3)o2)c1` (relative stereo) [Compound 41, Methyl[3-[4-(4,5-diphenyl-2-oxazolyl)-4,5-dihydro-2-methyl-5-oxazolyl]phenoxy]acetate] belongs 27 µg/mL (≈ 57.6 µM); to `COC(=O)COc1cccc([C@H]2OC(c3ccccc3)=N[C@H]2c2nc(-c3ccccc3)c(-c3ccccc3)o2)c1` (relative stereo) [Compound 42, Methyl[3-[4-(4,5-diphenyl-2-oxazolyl)-4,5-dihydro-2-phenyl-5-oxazolyl]phenoxy]acetate], 32 µg/mL (≈ 60.3 µM). For the compound `COC(=O)COc1cccc(-c2ncoc2-c2nc(-c3ccccc3)c(-c3ccccc3)o2)c1` [Compound 4], the IC50 came to 0.174 µg/mL (≈ 0.385 µM). In the case of `O=C(O)COc1cccc(-c2ncoc2-c2nc(-c3ccccc3)c(-c3ccccc3)o2)c1` [Compound 5], the IC50 is 0.07 µg/mL (≈ 0.16 µM). `COC(=O)COc1cccc(-c2ccccc2-c2nc(-c3ccccc3)c(-c3ccccc3)o2)c1` [Compound 6, Methyl[2'-(4,5-diphenyl-2-oxazolyl)-[1,1'-biphenyl]-3-yloxy]acetate]: the IC50 turned out to be 32 µg/mL (≈ 69.3 µM). The same measure, in the same setting: to `O=C(O)COc1cccc(-c2ccccc2-c2nc(-c3ccccc3)c(-c3ccccc3)o2)c1` [Compound 7, [2'-(4,5-Diphenyl-2-oxazolyl)-[1,1'-biphenyl]-3-yloxy]acetic acid] belongs 5 µg/mL (≈ 11.2 µM). The same measure, in the same setting: to `COC(=O)COc1cccc(-c2nn(C)cc2-c2nc(-c3ccccc3)c(-c3ccccc3)o2)c1` [Compound 11, Methyl[3-[4-(4,5-diphenyl-2-oxazoly)-1-methyl-3-pyrazolyl]phenoxy]acetate] belongs 1.12 µg/mL (≈ 2.41 µM).

Take `Cn1cc(-c2nc(-c3ccccc3)c(-c3ccccc3)o2)c(-c2cccc(OCC(=O)O)c2)n1` [Compound 12]: the IC50 amounted to 0.3 µg/mL (≈ 0.664 µM).

Consider `COC(=O)COc1cccc(-c2c(-c3nc(-c4ccccc4)c(-c4ccccc4)o3)cnn2C)c1` [Compound 13, Methyl[3-[4-(4,5-diphenyl-2-oxazolyl)-1-methyl-5-pyrazolyl]phenoxy]acetate], for which the half-maximal inhibitory concentration (IC50) stood at 0.75 µg/mL (≈ 1.61 µM). Still for that read-out and setting: to `Cn1ncc(-c2nc(-c3ccccc3)c(-c3ccccc3)o2)c1-c1cccc(OCC(=O)O)c1` [Compound 14] belongs 0.5 µg/mL (≈ 1.11 µM); to `COC(=O)COc1cccc(-c2[nH]ncc2-c2nc(-c3ccccc3)c(-c3ccccc3)o2)c1` [Compound 15, Methyl[3-[4-(4,5-diphenyl-2-oxazolyl)-5-pyrazolyl]phenoxy]acetate], 0.07 µg/mL (≈ 0.155 µM); to `O=C(O)COc1cccc(-c2[nH]ncc2-c2nc(-c3ccccc3)c(-c3ccccc3)o2)c1` [Compound 16, [3-[4-(4,5-Diphenyl-2-oxazolyl)-5-pyrazolyl]phenoxy]acetic acid], 0.08 µg/mL (≈ 0.183 µM). Take `COC(=O)COc1cccc(-c2oc(C)nc2-c2nc(-c3ccccc3)c(-c3ccccc3)o2)c1` [Compound 23, Methyl[3-[4-(4,5-diphenyl-2-oxazolyl)-2-methyl-5-oxazolyl]phenoxy]acetate]: the half-inhibitory concentration (IC50) worked out at 0.13 µg/mL (≈ 0.279 µM).

In the case of `Cc1nc(-c2nc(-c3ccccc3)c(-c3ccccc3)o2)c(-c2cccc(OCC(=O)O)c2)o1` [Compound 24], the IC50 was 0.02 µg/mL (≈ 0.0442 µM).

As for `COC(=O)COc1cccc(-c2oc(-c3ccccc3)nc2-c2nc(-c3ccccc3)c(-c3ccccc3)o2)c1` [Compound 25, Methyl[3-[4-(4,5-diphenyl-2-oxazolyl) -2-phenyl-5-oxazolyl]phenoxy]acetate], the IC50 amounted to 32 µg/mL (≈ 60.5 µM). Same read-out and setting: to `O=C(O)COc1cccc(-c2oc(-c3ccccc3)nc2-c2nc(-c3ccccc3)c(-c3ccccc3)o2)c1` [Compound 26, [3-[4-(4,5-Diphenyl-2-oxazolyl)-2-phenyl-5-oxazolyl]phenoxy]acetic acid] belongs 32 µg/mL (≈ 62.2 µM). Still for that read-out and setting: to `COC(=O)COc1cccc(C(O)C(NC=O)c2nc(-c3ccccc3)c(-c3ccccc3)o2)c1` (centres unmarked) [Compound 33, Methyl[3-[2-(4,5-diphenyl-2-oxazolyl)-2-(formylamino)-1-hydroxy-ethyl]phenoxy]acetate] belongs 10 µg/mL (≈ 21.2 µM); to `O=CNC(c1nc(-c2ccccc2)c(-c2ccccc2)o1)C(O)c1cccc(OCC(=O)O)c1` (centres unmarked) [Compound 36], 6.5 µg/mL (≈ 14.2 µM); to `COC(=O)COc1cccc(C(O)C(N)c2nc(-c3ccccc3)c(-c3ccccc3)o2)c1` (centres unmarked) [Compound 38, Methyl[3-[2-(4,5-diphenyl-2-oxazolyl)-2-amino-1-hydroxyethyl]phenoxy]acetate], 2.8 µg/mL (≈ 6.3 µM). Consider `COC(=O)COc1cccc(C2OC(=O)NC2c2nc(-c3ccccc3)c(-c3ccccc3)o2)c1` (centres unmarked) [Compound 43, Methyl[3-[4-(4,5-diphenyl-2-oxazolyl)-2-oxo-5-oxazolidinyl]phenoxy]acetate], for which the IC50 was determined as 5 µg/mL (≈ 10.6 µM).

The assay is the same for the next values; noted with them: Homo sapiens, Platelet, read-out: percentage in brackets beside the IC50 entry 32 (inhibition of ADP-induced aggregation).
For `COC(=O)COc1cccc([C@H]2OC(c3ccccc3)=N[C@H]2c2nc(-c3ccccc3)c(-c3ccccc3)o2)c1` (relative stereo) [Compound 42, Methyl[3-[4-(4,5-diphenyl-2-oxazolyl)-4,5-dihydro-2-phenyl-5-oxazolyl]phenoxy]acetate], the inhibition at 32 µg/mL was determined as 15%. As for `COC(=O)COc1cccc(-c2ccccc2-c2nc(-c3ccccc3)c(-c3ccccc3)o2)c1` [Compound 6, Methyl[2'-(4,5-diphenyl-2-oxazolyl)-[1,1'-biphenyl]-3-yloxy]acetate], the inhibition at 32 µg/mL was 34%. For the compound `COC(=O)COc1cccc(-c2oc(-c3ccccc3)nc2-c2nc(-c3ccccc3)c(-c3ccccc3)o2)c1` [Compound 25, Methyl[3-[4-(4,5-diphenyl-2-oxazolyl) -2-phenyl-5-oxazolyl]phenoxy]acetate], the inhibition at 32 µg/mL is 6%. For the compound `O=C(O)COc1cccc(C2OC(=O)NC2c2nc(-c3ccccc3)c(-c3ccccc3)o2)c1` (centres unmarked) [Compound 45, [3-[4-(4,5-Diphenyl-2-oxazolyl)-2-oxo-5-oxazolidinyl]phenoxy]acetic acid], the inhibition at 32 µg/mL worked out at 8%.

Staying with this assay, now noted: human PRP, incubated at about 37° C. for about 3 minutes prior to ADP.
Turning to `NC(c1nc(-c2ccccc2)c(-c2ccccc2)o1)C(O)c1cccc(OCC(=O)O)c1` (centres unmarked) [Compound 37], the “IC50 (human PRP vs ADP)” value was 0.9 µg/mL (≈ 2.09 µM). On the same count and under the same terms, to `O=C(O)COc1cccc(C2OC(=O)NC2c2nc(-c3ccccc3)c(-c3ccccc3)o2)c1` (centres unmarked) [Compound 44, [3-[4-(4,5-Diphenyl-2-oxazolyl)-2-oxo-5-oxazolidinyl]phenoxy]acetic acid] belongs 1 µg/mL (≈ 2.19 µM); to `O=C(O)COc1cccc(C2OC(=O)NC2c2nc(-c3ccccc3)c(-c3ccccc3)o2)c1` (centres unmarked) [Compound 45, [3-[4-(4,5-Diphenyl-2-oxazolyl)-2-oxo-5-oxazolidinyl]phenoxy]acetic acid], 32 µg/mL (≈ 70.1 µM).
